The half-life is how long it takes for the measured level to halve. Read a low half-life as fast loss. The hepatocyte CLint is the rate of metabolic loss divided by the concentration.

Data set [1] in a line: in vitro. As to conditions: hepatocytes. The protocol: (§1) In a further assay, isoxazolines (fluralaner and afoxolaner) and control compounds (7-Ethoxycoumarin and 7-Hydroxycoumarin [Sigma]) were dissolved in DMSO at 10 and 30 mM respectively, then diluted first 20-fold with 45% methanol in water and a further 10-fold in pre-warmed Williams' Medium E. Cryopreserved human, dog and rat hepatocytes (In Vitro Technologies) were thawed, isolated by percoll gradient and suspended in Williams' Medium E. Cells were then dispensed into the wells of 96-well plates containing 10 μL of diluted compounds, to reach a final concentration of 0.5×10^6 cells/mL and 1 μM of isoxazolines or 3 μM of control. After an incubation at 37° C. of 0, 15, 30, 60 or 90 minutes, the reaction was stopped with acetonitrile. The samples were then shaken for 10 minutes at 500 rpm and centrifuged at 3220 g for 20 minutes. Supernatants were transferred and stored at 4° C. until LC-MS-MS analysis.

The nature of data set [2]: in vitro. Conditions: human, hepatocytes. Here is the method: as §1
Data set [3] can be described thus: in vitro. Conditions: hepatocytes. Here is the method:
as §1
This is another data set of the same source.

For data set [4], the system named is Aedes aegypti New Orleans. Nature of the data set: WHO paper contact assay, Aedes aegypti New Orleans. It is filed as in vivo. Conditions: papers 0.75% permethrin, 0.05% deltamethrin, 4% DDT, 0.1% bendiocarb, 1.0% fenitrothion, 4% dieldrin. Here is the method:
(§2) Mosquito colonies utilized in the examples were generally maintained as described: The colony of Anopheles stephensi (Sind-Kasur Nijmegen strain) was maintained at the Radboud University Medical Center, Nijmegen, The Netherlands, by 30° C. and 70-80% humidity and on a 12/12 hour day/night cycle. The Anopheles gambiae strains Kisumu and Tiassalé and the Aedes aegypti strains New Orleans and Cayman were reared at the Liverpool Insect Testing Establishment, Liverpool, UK. Kisumu is an insecticide susceptible lab strain. New Orleans was originally colonized by the Centers for Disease Control and Prevention. The Tiassalé strain was colonized from Southern Cote D'Ivoire where resistance to all classes of insecticide is found and the Cayman strain was colonized from Grand Cayman, where Aedes aegypti are highly resistant to DDT and pyrethroid insecticides. Both resistant strains are routinely selected with insecticides to ensure the maintenance of resistance, 0.75% permethrin for Cayman and 0.05% deltamethrin for Tiassalé, and profiled for resistance to a range of insecticides, including 4% dieldrin, to which Tiassalé is resistant but Cayman is susceptible.
(§3) Without being bound by theory, isoxazolines occupy a binding site that is distinct from the targets of known modulators of ionotropic GABA receptors. In line with this notion, fluralaner and afoxolaner were fully active against the Anopheles gambiae Tiassalé strain that carries the resistance-to-dieldrin (rdl) mutation in the GABA receptor. In addition, they were equipotent against pyrethroid- and carbamate-resistant strains carrying mutations in the kdr sodium channel and acetylcholine esterase (Ace-1) genes respectively. […] The results are shown as percentage of survival (on over 100 mosquitoes for each case), the bold and underlined numbers indicate values that fall within the criteria for resistance.

Data set [5] deals with Anopheles gambiae Tiassale 13. Nature of the data set: WHO paper contact assay, Anopheles gambiae Tiassale. Format: in vivo. As to conditions: papers 0.75% permethrin, 0.05% deltamethrin, 4% DDT, 0.1% bendiocarb, 1.0% fenitrothion, 4% dieldrin. The protocol:
as §2, §3

Another data set relates to Aedes aegypti Cayman. Nature of the data set: WHO paper contact assay, Aedes aegypti Cayman. As to conditions: papers 0.75% permethrin, 0.05% deltamethrin, 4% DDT, 0.1% bendiocarb, 1.0% fenitrothion, 4% dieldrin. Format: in vivo. The protocol: as §2, §3
A further data set concerns Anopheles gambiae Kisumu. Nature of the data set: WHO paper contact assay, Anopheles gambiae Kisumu. It is filed as in vivo. Conditions: papers 0.75% permethrin, 0.05% deltamethrin, 4% DDT, 0.1% bendiocarb, 1.0% fenitrothion, 4% dieldrin. Here is the method: as §2, §3
The subject of data set [6] is Anopheles gambiae (Tiassalé). Nature of the data set: Membrane feeding, Anopheles gambiae Tiassalé strain (rdl mutation). It is filed as in vivo. Conditions: Tiassale strain; membrane feeding. The protocol: as §2
Isoxazoline compounds fluralaner or afoxolaner were reconstituted in 50% human serum and 50% red blood cells and administered to adult Anopheles stephensi mosquitos via standard membrane feeding. Lethality was assessed 1, 2 or 8 days after exposure. FIG. 2A represents a plot of viable Anopheles stephensi versus fluralaner concentration at each day of assessment. FIG. 2B represents a plot of viable Anopheles stephensi versus afoxolaner concentration at each day of assessment. […] The IC50 values of each compound for Anopheles death were determined by logistic regression using a least squares method to find the best fit and are shown in Table 1. IC50 values were calculated by applying a four-parameter logistic regression model using a least-squares method to find the best fit using the Graphpad Prism 5.0 software package.
The membrane feeding experiment described was repeated using the insecticide dieldrin on two strains of Anopheles gambiae: Kisumu and Tiassale. The Tiassale strain has a mutation in the resistance to dieldrin (rdl) locus, which codes for γ-aminobutyric acid (GABA) receptor. The Tiassale strain was resistant to pyrethroids, carbamate, DDT and dieldrin (knockdown resistance (kdr), Ace and rdl mutations). The Kisumu strain was susceptible to killing by all tested insecticides. FIG. 3A represents a plot of percentage survival of Kisumu and Tiassale strains of Anopheles gambiae versus dieldrin concentration. FIG. 3B represents a plot of survival of the Kisumu and Tiassale strains at 10 μM dieldrin. […] Both figures indicate that the dose-response in systemic feed experiment performed here in allows for identification of a resistance profile.
The feed experiment in Anopheles gambiae was repeated using the isoxazoline compounds fluralaner and afoxolaner to determine if the rdl mutation confers resistance to the isoxazoline insecticides. Isoxazoline insecticides target Rdl, but in a location thought to be different from dieldrin. The mosquitos were fed fluralaner or afoxolaner at various concentrations and lethality was assessed after 24 hours. FIG. 4A represents a plot of percentage survival of Kisumu and Tiassale strains of Anopheles gambiae versus fluralaner concentration. FIG. 4B represents a plot of percentage survival of Kisumu and Tiassale strains of Anopheles gambiae versus afoxolaner concentration.

The test system of a further data set is malaria transmission. As to conditions: cited from earlier work.

As to `CCOc1ccc2ccc(=O)oc2c1` [7-Ethoxycoumarin], the figures for the half-life in “in vitro [1]” (rat), in the data set “in vitro [2]” and in the data set “in vitro [3]” (dog) were 61.8 min, 20.1 min and 14 min, respectively. Besides, the hepatocyte CLint in “in vitro [1]” (rat) was 22.4 µL/min/1e6 cells; in “in vitro [2]” it was 69.1 µL/min/1e6 cells; in “in vitro [3]” (dog) it was 99.3 µL/min/1e6 cells.

`O=c1ccc2ccc(O)cc2o1` [7-Hydroxycoumarin]: the half-life worked out at 4.8 min in the data set “in vitro [1]”, 14.7 min in the data set “in vitro [2]” and 20.4 min in “in vitro [3]”. The results for the hepatocyte CLint in the data set “in vitro [1]”, in the data set “in vitro [2]” and in “in vitro [3]” were 290 µL/min/1e6 cells, 94.1 µL/min/1e6 cells and 68.1 µL/min/1e6 cells, respectively.

Regarding `CNC(=O)Oc1cccc2c1OC(C)(C)O2` [Bendiocarb], the percentage of survival is 27% in [4], 11% in [5], 20% with Aedes aegypti Cayman and 100% with Anopheles gambiae Kisumu.

On to `Clc1ccc(C(c2ccc(Cl)cc2)C(Cl)(Cl)Cl)cc1` [DDT], for which the percentage of survival in data set [4] was 100%; in [5], 3%; with Aedes aegypti Cayman it was 0%; in the data set with Anopheles gambiae Kisumu, 100%.

In the case of `CC1(C)[C@H](C(=O)O[C@H](C#N)c2cccc(Oc3ccccc3)c2)[C@@H]1C=C(Br)Br` [Deltamethrin], the percentage of survival in data set [4] was 100%; in [5] it was 10%; in the data set on Aedes aegypti Cayman, 36%; with Anopheles gambiae Kisumu, 100%.

Regarding `ClC1=C(Cl)[C@]2(Cl)[C@@H]3[C@@H]4C[C@@H]([C@H]5O[C@@H]45)[C@@H]3[C@@]1(Cl)C2(Cl)Cl` [Dieldrin], the percentage of survival worked out at 100% in [4], 21% in data set [5], 95% in the data set on Aedes aegypti Cayman and 96% with Anopheles gambiae Kisumu. Moreover, in data set [6], the “resistance of strain to killing (in words)” value is “confers resistance to killing by dieldrin”.

Regarding `COP(=S)(OC)Oc1ccc([N+](=O)[O-])c(C)c1` [Fenitrothion], the percentage of survival in data set [4] stood at 100%; in [5], 96%; in the data set on Aedes aegypti Cayman, 100%; in the data set on Anopheles gambiae Kisumu, 100%.

With `CC1(C)C(C=C(Cl)Cl)C1C(=O)OCc1cccc(Oc2ccccc2)c1` (stereo not shown) [Permethrin], the percentage of survival in data set [4] turned out to be 100%; in [5], 3%; in the data set on Aedes aegypti Cayman it was 7%; in the data set with Anopheles gambiae Kisumu, 100%.

Turning to ivermectin, in the data set with malaria transmission (MDA studies), the “estimated reduction in new malaria cases in children under 5” value is on record as 16% and the “reduction in infectious Anopheles gambiae” value is listed as about 80%. In addition, the “estimated reduction in transmission potential” value with malaria transmission (co-treatment with artemether-lumefantrine, effect short-lived) is given as 35%.

Values taken from US20200061026A1, “METHODS AND COMPOSITIONS FOR PREVENTING VECTOR-BORNE DISEASE TRANSMISSION” (The Scripps Research Institute, priority 2016, published 2020).
